Laboratory results published in patent publication US20220249511A1, “METHODS FOR THE TREATMENT OF KELOID, HYPERTROPHIC SCARS AND/OR HYPERPIGMENTATION DISORDERS” (INSERM (INSTITUT NATIONAL DE LA SANTÉ ET DE LA RECHERCHE …, priority 2019, published 2022).

What was measured:
Tgfβ mRNA [1] = experiment: Tgfβ mRNA expression in primary fibroblasts derived from pathological scars; type: cell-based, human; details: exposed 24 h, vs DMSO, FIG. 3C
Protocol: (§1) Skin samples (hypertrophic, keloids and burn scars) were collected during surgical procedures. To generate dermal fibroblast cultures, skin samples were minced and incubated at room temperature in 0.05% trypsin-EDTA (ThermoFisher) solution for 30 min with gentle shaking. Cells were collected by centrifuging at 700 g for 10 min, resuspended in cell culture media containing 25% FBS, and plated onto 24 well plates to establish lines. Fibroblast cultures were grown and maintained in 1× MEM (Corning) supplemented with 25% FBS and penicillin/streptomycin (Corning) to a final concentration of 100 IU penicillin and 500 μg.mL-1 streptomycin.
(§2) Cells at similar population doubling were plated 1:4 from confluent cultures and allowed to grow until ˜80% confluent. Cells were then starved during 12 hours and exposed during 24 h to either BYL719 (0.1 or 1 μmol.L-1; MedChem Express), taselisib (0.1 or 2. μmol.L-1; MedChem Express) or miransertib (0.1 or […]) or equal volume of DMSO. We also performed ex vivo keloid scars culture. Keloids were exposed during 24h to either BYL719 (0.1 or 1 μmol.L-1; MedChem Express) or equal volume of DMSO.
(§3) Total RNA was isolated from snap-frozen kidneys using the TRIzol reagent (Sigma) according to the manufacture's protocol. First-strand cDNA was synthesized using the MML-V reverse transcriptase (Promega, USA). Real-time PCR was performed using the iQ-SYBR Green supermix (BioRad) and the iQ5 Multicolor Real-Time PCR Detection System (BioRad) for mRNA detection. 18S rRNA was used as a house keeping gene.

AKT/mTOR pathway [2] = experiment: Western blot of P-AKT and P-S6RP in primary fibroblasts derived from pathological scars; type: cell-based, human; details: starved 12 hours, exposed 24 h, vs DMSO, FIG. 3A
Protocol: as §1, §2
Cultures were rinsed with 1X PBS, treated for 10 min with 0.05% Trypsin, collected by centrifugation at 4° C., and pellets were flash frozen on dry ice. Protein lysates were collected by directly adding 1× RIPA buffer containing protease and phosphatase inhibitors. Each experiment was performed in duplicate and repeated at least three times
Western blots were performed as previously described^31. Briefly, protein extracts from the scars and primary culture of fibroblasts were resolved by SDS-PAGE before being transferred onto the appropriate membrane and incubated with anti-P-AKT (Ser473) antibody (Cell Signaling Technology, ref# 4060), anti-P-S6RP antibody (Cell Signaling Technology, ref# 5364) and anti-GAPDH (Merck Millipore, ref#374), followed by the appropriate peroxidase-conjugated secondary antibody. […]

[3] = system: hypertrophic and keloids scars; experiment: Cohort of PROS patients treated with oral BYL719: hypertrophic and keloid scars; type: in vivo, human; details: daily dose of 250 mg in adults or 50 mg in children, FIG. 1
Protocol: (§4) The cohort is composed by 19 patients including 15 children (ranging from 4 to 50 years old). Children received 50 mg daily while adults received 250 mg daily. BYL719 was delivered orally every morning with breakfast. Patients were followed at regular intervals:
(§5) weekly for 8 weeks, every two weeks for 1 month and then monthly. All patients underwent clinical examination, and areas of overgrowth, nevi as well as visible scars were photographed before and after BYL719 introduction. All pictures were taken by a single operator, always using the same camera (12-megapixel camera), in the same room and at the same distance. […] Length and surface of the scars were measured using Image J.

AKT/mTOR pathway [4] = experiment: Western blot of ex vivo keloid scars culture; type: cell-based, human; details: ex vivo keloids exposed 24h to 0.1 or 1 μmol.L-1, vs DMSO; FIG. 3D
Protocol: as §2
Western blots were performed as previously described^31. Briefly, protein extracts from the scars and primary culture of fibroblasts were resolved by SDS-PAGE before being transferred onto the appropriate membrane and incubated with anti-P-AKT (Ser473) antibody (Cell Signaling Technology, ref# 4060), anti-P-S6RP antibody (Cell Signaling Technology, ref# 5364) and anti-GAPDH (Merck Millipore, ref#374), followed by the appropriate peroxidase-conjugated secondary antibody. Chemiluminescence was acquired using a Fusion FX7 camera (Vilbert Lourmat) and densitometry was performed using the Bio1D software (Certain Tech).

[5] = system: primary fibroblasts derived from pathological scars; experiment: Proliferation of primary fibroblasts derived from pathological scars; type: cell-based, human; details: exposed 24 h, vs DMSO, FIG. 3B
Protocol: (§6) Paraffin-embedded kidney sections (4-um) were incubated with anti-P-AKT (Ser473) antibody (Cell Signaling Technology, ref# 4060), anti-P-S6RP antibody (Cell Signaling Technology, ref# 5364), anti-a-smooth muscle cell antibody (Sigma Aldrich, ref# A5228), and anti-KI67 antibody (Thermo Fisher Scientific, ref# RM-9106-51) Immunofluorescence studies were analyzed using a Zeiss LSM 700 confocal microscope.
as §1, §2

burn scar = experiment: PROS patient treated with oral BYL719: burn scar; type: in vivo, human; details: one PROS patient with a large burn scar on the left thigh, FIG. 2
Protocol: as §4, §5

nevi = experiment: Cohort of PROS patients treated with oral BYL719: nevus color (visual scale); type: in vivo, human; details: arbitrary visual scale 5: dark color to 1: normal skin color, FIG. 1
Protocol: as §4, §5
As shown on FIG. 1, inventors have observed that during treatment with oral BYL719, the length, the area and the thickness of the different scars were dramatically reducing without additional treatment. […] Nevus color was evaluated using an arbitrary visual scale ranging from (5: dark color to 1: normal skin color).

keloids = experiment: Proliferation rate in ex vivo keloid scars culture; type: cell-based, human; details: ex vivo keloids exposed 24h to 0.1 or 1 μmol.L-1, vs DMSO; FIG. 3E
Protocol: as §6, §2

Tgfβ mRNA [6] = experiment: Tgfβ mRNA expression in ex vivo keloid scars culture; type: cell-based, human; details: ex vivo keloids exposed 24h to 0.1 or 1 μmol.L-1, vs DMSO; FIG. 3F
Protocol: as §2, §3

## Cc1nc(NC(=O)N2CCC[C@H]2C(N)=O)sc1-c1ccnc(C(C)(C)C(F)(F)F)c1 [BYL719, Alpelisib]
Tgfβ mRNA [1]
  mRNA expression of Tgfβ, a marker of fibrosis: reduced
AKT/mTOR pathway [2]
  AKT/mTOR pathway (P-AKT and P-S6RP in WB): efficiently block
[3]
  length of the hypertrophic and keloids scars: progressive improvement
  surface area of the hypertrophic and keloids scars: progressive improvement
  thickness of the hypertrophic and keloids scars: progressive improvement
AKT/mTOR pathway [4]
  AKT/mTOR pathway (Western blot): inhibits
[5]
  proliferation: reduced
Burn scar
  size of the burn scar: reduction in size
nevi
  nevus color: spontaneously decolorating
keloids
  proliferation rate: reduce
Tgfβ mRNA [6]
  Tgfβ mRNA expression: reduce

## Cc1nc(-c2cn3c(n2)-c2ccc(-c4cnn(C(C)(C)C(N)=O)c4)cc2OCC3)n(C(C)C)n1 [taselisib, Taselisib]
Tgfβ mRNA [1]
  mRNA expression of Tgfβ, a marker of fibrosis: reduced
AKT/mTOR pathway [2]
  AKT/mTOR pathway (P-AKT and P-S6RP in WB): efficiently block
[5]
  proliferation: reduced

## Nc1ncccc1-c1nc2ccc(-c3ccccc3)nc2n1-c1ccc(C2(N)CCC2)cc1 [miransertib, Miransertib]
Tgfβ mRNA [1]
  mRNA expression of Tgfβ, a marker of fibrosis: reduced
AKT/mTOR pathway [2]
  AKT/mTOR pathway (P-AKT and P-S6RP in WB): efficiently block
[5]
  proliferation: reduced
